Results on three compounds are retold here after US4824944A, “Antineoplastic enamine derivatives of daunorubicin and adriamycin” (Politechnika Gdanska, priority 1987, dated 1989).

Each structure is given as a SMILES string.

The subject of one data set is murine leukemia P-388. Kind of data set: Anticancer activity in mice with leukemia P-388, survival time (T/C). The note with it: for T/C (second value, in parentheses): not explained. Type of data set: in vivo. The protocol:
(§1) The following Table I sets forth the comparative results of the effectiveness of the parent antibiotic, daunorubicin, in the inhibition of the growth of the cancerous cells of murine leukemia P-388 in mice versus the anticancer activity of enamine derivatives of daunorubicin according to the present invention. ED50 denotes the concentration of the compound being tested leading to 50 percent inhibition of cancerous cell growth at 48 hours incubation time of the compound being tested. LD50 indicates the dosage of the tested compounds which cause death after 24 hours of one-half of the number of mice which have been intraperitonically administered the subject compound. T/C in percent represents the ratio of mean survival time of the group of treated mice versus the group of untreated mice.

Data set [1] is described as follows: Acute toxicity in mice after intraperitoneal administration (LD50, 24 hours). Type of data set: in vivo. The note with it: mouse, in vivo, ip; mice, intraperitoneal, death of one-half after 24 hours. The protocol: as §1
The test system of data set [2] is cardiac muscle of rats. Kind of data set: Examination of the cardiac muscle of rats after intraperitoneal administration (cardiotoxicity). Format: in vivo. The note with it: i.p., 0.2, 10 and 20 mg/kg, versus daunorubicin. An excerpt: Preparations from cardiac muscle tinted with H+E have been examined under light and polarizing microscopes.
Data set [3] relates to cardiac muscle of rats. The note with it: i.p., three dosage levels (0.2, 10, 20 mg/kg), H+E, light and polarizing microscopes; cited from earlier work.
In a further data set the test system is mice. Kind of data set: Acute toxicity in mice after intraperitoneal administration (LD50, 24 hours). Format: in vivo. The conditions noted are these: daunorubicin versus the inventive derivatives. The protocol: as §1

Regarding `CCOC(=O)C=C(C)N[C@H]1C[C@H](O[C@H]2C[C@](O)(C(C)=O)Cc3c(O)c4c(c(O)c32)C(=O)c2c(OC)cccc2C4=O)O[C@@H](C)[C@H]1O` [N-(1-carboethoxy-propen-1-yl-2)-daunorubicin], the T/C with murine leukemia P-388 (Dose (mg/kg) 3 130) was 94%; in the data set on murine leukemia P-388 (Dose (mg/kg) 6 250) it was 103%; in the data set with murine leukemia P-388 (Dose (mg/kg) 12 500) it was 103%; in the data set with murine leukemia P-388 (Dose (mg/kg) 25 000), 115%; in the data set on murine leukemia P-388 (Dose (mg/kg) 50 000), 132%; in the data set on murine leukemia P-388 (Dose (mg/kg) 100 000) it was 144%. The same compound came in with a T/C in the data set on murine leukemia P-388 (Dose (mg/kg) 200 000) of 102%. Also, the “T/C (second value, in parentheses)” value with murine leukemia P-388 (Dose (mg/kg) 25 000) came out at 119%; with murine leukemia P-388 (Dose (mg/kg) 50 000), 128%. In data set [1], the LD50 at 24 h came to 500 mg/kg. For the same compound, the “morphological and ultrastructural changes to muscular tissue” value in the data set with cardiac muscle of rats [2] was “considerably less morphological and ultrastructural changes to muscular tissue than does the initial daunorubicin”. Also, in the data set with cardiac muscle of rats [3], the “subsegmentary contractions / disturbances in heart rhythm” value was “does not cause said disturbances, the cardiac muscle evidencing a regular and alternating system of isotropic and anizotropic fringes”.
Regarding `COc1cccc2c1C(=O)c1c(O)c3c(c(O)c1C2=O)C[C@@](O)(C(C)=O)C[C@@H]3O[C@H]1C[C@H](NC(C)=CC(C)=O)[C@H](O)[C@H](C)O1` [N--(penten-2-on-4 yl-2)-daunorubicin, N-(penten-2-on-4-yl-2) daunorubicin], the T/C in the data set on murine leukemia P-388 (Dose (mg/kg) 3 130) was 131%; in the data set on murine leukemia P-388 (Dose (mg/kg) 6 250) it was 110%; with murine leukemia P-388 (Dose (mg/kg) 12 500), 119%; with murine leukemia P-388 (Dose (mg/kg) 25 000), 125%; in the data set on murine leukemia P-388 (Dose (mg/kg) 50 000) it was 118%; in the data set with murine leukemia P-388 (Dose (mg/kg) 100 000), 147%. In the data set on murine leukemia P-388 (Dose (mg/kg) 200 000), the T/C entry was “toxic”. For the same compound, the results for the “T/C (second value, in parentheses)” value in the data set on murine leukemia P-388 (Dose (mg/kg) 25 000) and in the data set on murine leukemia P-388 (Dose (mg/kg) 50 000) were 131% and 144%, respectively. The compound further registered an LD50 at 24 h in data set [1] of 500 mg/kg.
With `COc1cccc2c1C(=O)c1c(O)c3c(c(O)c1C2=O)C[C@@](O)(C(C)=O)C[C@@H]3O[C@H]1C[C@H](N)[C@H](O)[C@H](C)O1` [Daunorubicin, daunorubicin], the T/C was found to be 108% in the data set on murine leukemia P-388 (Dose (mg/kg) 3 130); 112% with murine leukemia P-388 (Dose (mg/kg) 6 250); 112% with murine leukemia P-388 (Dose (mg/kg) 12 500); 127% in the data set on murine leukemia P-388 (Dose (mg/kg) 25 000); 102% in the data set on murine leukemia P-388 (Dose (mg/kg) 50 000). In data set [1], the LD50 at 24 h is 135 mg/kg. In addition, the “dosage level of toxic effects” value in the data set with mice was “occur at a far lower dosage level as opposed to the inventive derivatives”. Moreover, the “subsegmentary contractions / disturbances in heart rhythm” value in the data set on cardiac muscle of rats [3] is listed as “leads to the formation of numerous subsegmentary contractions causing, in effect, disturbances in heart rhythm”.

One may read the T/C as the result in the treated group divided by that in the control group, in per cent. In general, LD50 refers to the dose expected to kill half of the subjects tested.
